From patent publication US20130079345A1, “[…] ACTIVE DISUBSTITUTED TRIAZINE DERIVATIVES” (BAYER INTELLECTUAL PROPERTY GMBH, priority 2010, published 2013)
Structures can show the parent of a compound that is named as a salt.

Key:
[1] = tested on: DU145 cells; experiment: Cell viability, DU145 cells; type: cell-based, human
Procedure: (§1) HeLa- or MDAMB468-Cells or MATU ADR, H460, DU145, CACO-2 or B16F10 cells were maintained in RPMI 1640 or McCoy's 5A cell culture medium+glutamine (PAN Biotech GmbH, Aidenbach, Germany; order no. P04-22100; P04-05500) supplemented with 10% fetal calf serum “Gold” (PAA Laboratories GmbH, Pasching, Austria; order no. A15-151) and grown at 37° C., 5% CO2. For the cell viability assay, cells were seeded with a density of 400 (Hela cells, DSMZ Braunschweig order no. ACC57) or 800 (MDAMB468 cells, ATCC order no. HTB-132) per well in 25 μL in 384-well plates (Greiner Bio-One, Frickenhausen, Germany; order no. 781080). After overnight incubation at 37° C./5% CO2, 25 nL or 75 nL compound were added to each sample well by using BIOMEK FXP Laboratory Automation Workstation (Beckman Coulter, USA). Wells with cells and 0.1% or 0.3% DMSO in culture medium were used as positive controls, wells with cells and 10 μM staurosporine in culture medium were used as negative controls. The cells were incubated with the compounds for 72 h at 37° C./5% CO2. For measurement of cell viability […] Cell Titer Glo reagent (Promega, Madison, USA; order no. G7573), 1:2 diluted with cell culture medium, was added to each well. The 384well-plates were placed for 2 min on an orbital microplate shaker and incubated for further 10 min at room temperature to stabilize the luminescence signal. Luminescence was measured by Envision Plate Reader (Perkin Elmer, USA). EC50 values were calculated with the software Excel Fit (IDBS, Guildford, UK) from 3-fold dilution series comprising at least 8 concentrations in duplicates.
(§2) Cultivated tumour cells (NCl-H460, human non-small cell lung carcinoma cells, ATCC HTB-177; DU 145, hormone-independent human prostate carcinoma cells, ATCC HTB-81; HeLa-MaTu, human cervical carcinoma cells, EPO-GmbH, Berlin; HeLa-MaTu-ADR, multidrug-resistant human cervical carcinoma cells, EPO-GmbH, Berlin; HeLa human cervical tumour cells, ATCC CCL-2; Caco-2 human colorectal carcinoma, ATCC HTB-37; B16F10 mouse melanoma cells, ATCC CRL-6475) were plated at a density of 5,000 cells/well (DU145, HeLa-MaTu-ADR), 3,000 cells/well (NCl-H460, HeLa-MaTu, HeLa), 1,500 cells/well (Caco-2), or 1,000 cells/well (B16F10) in a 96-well multititer plate in 200 μL of their respective growth medium supplemented with 10% fetal calf serum. After 24 hours, the cells of one plate (zero-point plate) were stained with crystal violet (see below), while the medium of the other plates was replaced by fresh culture medium (200 μl), to which the test substances were added in various concentrations (0 μM as well as in the range of 0.001 to 10 μM; the final concentration of the solvent dimethyl sulfoxide was 0.5%). The cells were incubated in the presence of test substances for 4 days. Cell proliferation was determined by staining the cells with crystal violet: The cells were fixed by adding 20 μl/measuring point of an 11% glutaric aldehyde solution at room temperature for 15 minutes. After three washing cycles of the fixed cells with water, the plates were dried at room temperature. […] The extinction was determined by photometry at a wavelength of 595 nm. The change of cell number, in percent, was calculated by normalization of the measured values to the extinction values of the zero-point plate (equivalent to 0%) and the extinction of the untreated (0 μm) cells (equivalent to 100%). The IC50 values were determined by means of a 4 parameter fit using the company's own software.

[2] = tested on: CACO-2 cells; experiment: Cell viability, CACO-2 cells; type: cell-based, human
Procedure: as §1, §2

| Compound | IC50 ([1]; Homo sapiens, DU-145) [µM] | IC50 ([2]; Homo sapiens, Caco-2) [µM] | IC50 ([1]; hydrochloride) [µM] | IC50 ([2]; hydrochloride) [µM] |
| --- | --- | --- | --- | --- |
| COc1ccccc1-c1ncnc(Nc2cccc(CS(N)(=O)=O)c2)n1 [B1′, 3-[(4-(2-Methoxyphenyl)-1,3,5-triazin-2-yl)amino]benzenemethanesulfonamide trifluoroacetic acid salt] | 3.8 | 4.3 |  |  |
| COc1cc(F)ccc1-c1ncnc(Nc2cccc(CS(N)(=O)=O)c2)n1 [B2′, 1-(3-{[4-(4-fluoro-2-methoxyphenyl)-1,3,5-triazin-2-yl]amino}phenyl)methanesulfonamide hydrochloride] |  |  | 1 | 1.5 |

Other lines, results leading:

| IC50 ([1]; Homo sapiens, DU-145) [µM] | IC50 ([2]; Homo sapiens, Caco-2) [µM] | IC50 ([1]; hydrochloride) [µM] | IC50 ([2]; hydrochloride) [µM] | Compound |
| --- | --- | --- | --- | --- |
| 1 | 1.1 |  |  | COc1ccccc1-c1ncnc(Nc2cccc(S(N)(=O)=O)c2)n1 [C1′, 3-[(4-(2-Methoxyphenyl)-1,3,5-triazin-2-yl)amino]benzenesulfonamide trifluoroacetic acid salt] |
| 0.33 | 0.37 |  |  | NS(=O)(=O)Cc1cccc(Nc2ncnc(-c3ccccc3OCc3ccccc3)n2)c1 [B13′, 3-[(4-(2-Benzyloxyphenyl)-1,3,5-triazin-2-yl)amino]benzenemethanesulfonamide trifluoroacetic acid salt] |
| 1.5 | 1.6 |  |  | COc1cc(F)ccc1-c1ncnc(Nc2cccc(CS(N)(=O)=O)c2)n1 [Compound B2, 3-[(4-(4-Fluoro-2-methoxyphenyl)-1,3,5-triazin-2-yl)amino]benzenemethanesulfonamide] |
